Source: article PMC7403421, “Uncovering a possible role of reactive oxygen species in magnetogenetics” (Scientific Reports, 2020)

Target: T1, TRPV1 (Rattus norvegicus, UniProt O35433)
T1 construct: rat TRPV1 with an N-terminally fused camelidae anti-GFP nanobody (αGFPnb-TRPV1), co-expressed with eGFP-tagged ferritin dimer in HEK-293T cells
Experiment: agonist dose response in Ca2+-dependent SEAP reporter and fluorescent calcium imaging in HEK-293T cells expressing TRPV1
Type: cell-based

T1 sequence (O35433 whole entry, the tested form may be a part): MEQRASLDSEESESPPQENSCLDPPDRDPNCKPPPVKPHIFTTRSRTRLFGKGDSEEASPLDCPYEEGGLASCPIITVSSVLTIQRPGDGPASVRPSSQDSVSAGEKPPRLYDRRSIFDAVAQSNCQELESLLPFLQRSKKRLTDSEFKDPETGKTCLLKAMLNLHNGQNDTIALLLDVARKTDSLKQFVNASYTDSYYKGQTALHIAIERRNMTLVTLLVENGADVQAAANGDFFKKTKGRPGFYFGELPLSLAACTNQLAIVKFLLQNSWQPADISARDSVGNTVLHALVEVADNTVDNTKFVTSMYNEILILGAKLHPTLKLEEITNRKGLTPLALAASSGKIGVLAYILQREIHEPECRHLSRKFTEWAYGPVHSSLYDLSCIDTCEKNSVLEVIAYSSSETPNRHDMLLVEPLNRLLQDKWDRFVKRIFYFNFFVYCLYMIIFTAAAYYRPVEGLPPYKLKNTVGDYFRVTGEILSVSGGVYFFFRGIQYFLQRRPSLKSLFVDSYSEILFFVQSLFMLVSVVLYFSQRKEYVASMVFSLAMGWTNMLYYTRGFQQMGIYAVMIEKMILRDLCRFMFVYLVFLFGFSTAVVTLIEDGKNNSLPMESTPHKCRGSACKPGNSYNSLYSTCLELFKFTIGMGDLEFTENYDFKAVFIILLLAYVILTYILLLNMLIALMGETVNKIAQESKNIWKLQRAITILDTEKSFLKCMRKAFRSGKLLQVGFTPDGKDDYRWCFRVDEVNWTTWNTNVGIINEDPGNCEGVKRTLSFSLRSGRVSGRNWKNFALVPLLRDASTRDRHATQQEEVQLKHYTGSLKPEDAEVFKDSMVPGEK

COc1cc(CNC(=O)CCCC/C=C/C(C)C)ccc1O [capsaicin]
agonist dose response in Ca2+-dependent SEAP reporter and fluorescent calcium im: Dose dependent TRPV1-mediated SEAP production was observed with respect to both capsaicin and inhibitor concentration
